Measurements reported in ChEMBL document CHEMBL1155103, “Synthesis and SAR of novel, potent and orally bioavailable benzimidazole inhibitors of poly(ADP-ribose) polymerase (PARP) with a quaternary methylene-amino substituent” (Bioorg Med Chem Lett, 2008).
Activity calls are given as the source filed them. The calls are words filed in the database; no cut-off is given here.

What was measured:
[1] = target: T1, Poly [ADP-ribose] polymerase 1 (Homo sapiens, UniProt P09874); assay: Inhibition of PARP1
[2] = target: T1, Poly [ADP-ribose] polymerase 1; assay: Inhibition of PARP1 in cell based assay
[3] = Clearance in rat at 5 mg/kg, iv and 5 mg/kg, po; assay type: ADME, organism-based; conditions: in vivo
[4] = Oral bioavailability in dog at 2.5 mg/kg; assay type: ADME, organism-based, Canis lupus familiaris; conditions: in vivo
[5] = Clearance in mouse at 5 mg/kg, iv and 10 mg/kg, po; assay type: ADME, organism-based; conditions: in vivo
[6] = Volume of distribution in mouse at 5 mg/kg, iv and 10 mg/kg, po; assay type: ADME, organism-based; conditions: in vivo
[7] = AUC in dog at 2.5 mg/kg, po; assay type: ADME, organism-based, Canis lupus familiaris; set-up: dose 2.5 mg/kg, route oral; conditions: plasma
[8] = Volume of distribution in monkey at 2.5 mg/kg, iv and 2.5 mg/kg, po; assay type: ADME, organism-based, Macaca mulatta; conditions: rhesus monkey, in vivo
[9] = Volume of distribution in dog at 2.5 mg/kg, iv and 2.5 mg/kg, po; assay type: ADME, organism-based, Canis lupus familiaris; conditions: in vivo
[10] = Half life in monkey at 2.5 mg/kg, iv and 2.5 mg/kg, po; assay type: ADME, organism-based, Macaca mulatta; conditions: rhesus monkey, in vivo
[11] = Clearance in monkey at 2.5 mg/kg, iv and 2.5 mg/kg, po; assay type: ADME, organism-based, Macaca mulatta; conditions: rhesus monkey, in vivo
[12] = Volume of distribution in rat at 5 mg/kg, iv and 5 mg/kg, po; assay type: ADME, organism-based; conditions: in vivo
[13] = AUC in monkey at 2.5 mg/kg, po; assay type: ADME, organism-based, Macaca mulatta; set-up: dose 2.5 mg/kg, route oral; conditions: rhesus monkey, plasma
[14] = Clearance in dog at 2.5 mg/kg, iv and 2.5 mg/kg, po; assay type: ADME, organism-based, Canis lupus familiaris; conditions: in vivo
[15] = Half life in dog at 2.5 mg/kg, iv and 2.5 mg/kg, po; assay type: ADME, organism-based, Canis lupus familiaris; conditions: in vivo
[16] = Half life in mouse at 3 mg/kg, iv and 10 mg/kg, po; assay type: ADME, organism-based; conditions: in vivo
[17] = Oral bioavailability in mouse at 10 mg/kg; assay type: ADME, organism-based; conditions: in vivo
[18] = tested on: B16-F10; assay: Potentiation of temozolomide-induced cytotoxicity in mouse B16F10 cells […] C57BL/6 mouse melanoma model assessed as reduction in tumor volume at 30 mg/kg, po; assay type: functional, organism-based; set-up: dose 30 mg/kg
[19] = Oral bioavailability in rat at 5 mg/kg; assay type: ADME, organism-based; conditions: in vivo
[20] = AUC in mouse at 10 mg/kg, po; assay type: ADME, organism-based; set-up: dose 10 mg/kg, route oral; conditions: plasma
[21] = Oral bioavailability in monkey at 2.5 mg/kg; assay type: ADME, organism-based, Macaca mulatta; conditions: rhesus monkey, in vivo
[22] = AUC in rat at 5 mg/kg, po; assay type: ADME, organism-based; set-up: dose 5 mg/kg, route oral; conditions: plasma
[23] = Half life in mouse at 5 mg/kg, iv; assay type: ADME, organism-based; set-up: dose 5 mg/kg, route intravenous; conditions: in vivo
[24] = Clearance in mouse at 3 mg/kg, iv and 10 mg/kg, po; assay type: ADME, organism-based; conditions: in vivo
[25] = Volume of distribution in mouse at 3 mg/kg, iv and 10 mg/kg, po; assay type: ADME, organism-based; conditions: in vivo
[26] = Half life in rat at 5 mg/kg, iv and 5 mg/kg, po; assay type: ADME, organism-based; conditions: in vivo

T1 sequence (P09874 whole entry): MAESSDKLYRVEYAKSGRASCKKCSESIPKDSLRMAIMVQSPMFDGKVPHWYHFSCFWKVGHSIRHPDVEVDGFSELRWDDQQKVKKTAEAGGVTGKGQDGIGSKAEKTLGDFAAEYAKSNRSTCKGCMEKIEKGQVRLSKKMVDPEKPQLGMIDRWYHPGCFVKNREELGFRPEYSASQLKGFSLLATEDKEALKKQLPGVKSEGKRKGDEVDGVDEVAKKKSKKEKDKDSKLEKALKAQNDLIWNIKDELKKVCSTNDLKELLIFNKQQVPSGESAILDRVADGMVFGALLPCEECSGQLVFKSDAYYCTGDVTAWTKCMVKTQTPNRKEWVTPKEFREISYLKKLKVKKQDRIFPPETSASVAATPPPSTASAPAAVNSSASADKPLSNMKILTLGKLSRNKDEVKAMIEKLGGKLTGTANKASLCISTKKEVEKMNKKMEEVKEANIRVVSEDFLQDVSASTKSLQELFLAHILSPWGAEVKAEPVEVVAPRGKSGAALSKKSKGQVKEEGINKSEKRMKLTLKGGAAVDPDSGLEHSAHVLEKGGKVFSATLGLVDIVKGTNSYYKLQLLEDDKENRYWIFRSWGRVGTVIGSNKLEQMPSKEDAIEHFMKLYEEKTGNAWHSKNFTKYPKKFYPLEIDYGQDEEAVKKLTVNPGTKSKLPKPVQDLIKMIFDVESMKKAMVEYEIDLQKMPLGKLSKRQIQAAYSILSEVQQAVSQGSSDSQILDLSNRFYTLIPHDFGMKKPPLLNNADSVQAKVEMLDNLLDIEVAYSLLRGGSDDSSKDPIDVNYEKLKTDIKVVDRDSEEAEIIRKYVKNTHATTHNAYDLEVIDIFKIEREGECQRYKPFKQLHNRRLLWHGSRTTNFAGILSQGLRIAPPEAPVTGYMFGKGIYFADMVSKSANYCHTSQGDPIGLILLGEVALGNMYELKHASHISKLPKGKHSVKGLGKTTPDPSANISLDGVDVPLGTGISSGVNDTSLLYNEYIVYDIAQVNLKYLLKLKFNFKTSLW

Q: For `CC(NC1CCCCC1)c1nc2c(C(N)=O)cccc2[nH]1` (stereo not drawn), which Ki [1] is on record?
A: 53 nM

Q: With `CC(C)(c1nc2cccc(C(N)=O)c2[nH]1)N1CCCCC1` as the compound, how does the Ki [1] read?
A: 15 nM

Q: And the EC50 [2]?
A: 3.1 nM

Q: For `CC(CCNC1CCCC1)c1nc2c(C(N)=O)cccc2[nH]1` (stereo not drawn), which Ki [1] is on record?
A: 45 nM

Q: With `CC(C)NC(C)(C)c1nc2c(C(N)=O)cccc2[nH]1` as the compound, how does the clearance [3] read?
A: 85 mL/min/kg

Q: And the bioavailability [4]?
A: 70.5%

Q: What about the clearance [5] of the same compound?
A: 66.7 mL/min/kg

Q: And the Vd [6]?
A: 2.1 L/kg

Q: What about the AUC [7] of the same compound?
A: 6.07 µM·h

Q: And the Ki [1]?
A: 7 nM

Q: What about the Vd [8] of the same compound?
A: 1.1 L/kg

Q: What about the Vd [9] of the same compound?
A: 2.9 L/kg

Q: And the EC50 [2]?
A: 2 nM

Q: And the half-life [10]?
A: 36 min

Q: What about the clearance [11] of the same compound?
A: 23.3 mL/min/kg

Q: And the Vd [12]?
A: 3.7 L/kg

Q: And the AUC [13]?
A: 0.65 µM·h

Q: What about the clearance [14] of the same compound?
A: 14.2 mL/min/kg

Q: And the half-life [15]?
A: 168 min

Q: And the half-life [16]?
A: 36 min

Q: What about the bioavailability [17] of the same compound?
A: 82%

Q: What about the Activity [18] of the same compound?
A: Active

Q: And the bioavailability [19]?
A: 26%

Q: What about the AUC [20] of the same compound?
A: 5.78 µM·h

Q: And the bioavailability [21]?
A: 12.6%

Q: What about the AUC [22] of the same compound?
A: 0.74 µM·h

Q: What about the half-life [23] of the same compound?
A: 36 min

Q: And the clearance [24]?
A: 66.7 mL/min/kg

Q: And the Vd [25]?
A: 2.1 L/kg

Q: What about the half-life [26] of the same compound?
A: 60 min

Q: Which Ki [1] does the source give for `CC(C)(N)c1nc2c(C(N)=O)cccc2[nH]1` here?
A: 19 nM

Q: For `CC(C)(NCC1CC1)c1nc2c(C(N)=O)cccc2[nH]1`, which clearance [5] is on record?
A: 192 mL/min/kg

Q: And the Vd [6]?
A: 13.3 L/kg

Q: What about the Ki [1] of the same compound?
A: 7 nM

Q: And the EC50 [2]?
A: 2 nM

Q: And the bioavailability [17]?
A: 100%

Q: And the AUC [20]?
A: 3.38 µM·h

Q: What about the half-life [23] of the same compound?
A: 48 min

Q: Which Ki [1] does the source give for `CC(NCCc1ccccc1)c1nc2c(C(N)=O)cccc2[nH]1` (stereo not drawn) here?
A: 35 nM

Q: Which Ki [1] does the source give for `CC(CCN)c1nc2c(C(N)=O)cccc2[nH]1` (stereo not drawn) here?
A: 32 nM

Q: For `CC(C)(NC1CCCC1)c1nc2c(C(N)=O)cccc2[nH]1`, which Ki [1] is on record?
A: 9 nM

Q: And the EC50 [2]?
A: 4 nM

Q: For `NC(=O)c1cccc2[nH]c(C3(N)CCC3)nc12`, which Ki [1] is on record?
A: 25 nM

Q: With `CCNC(=O)NC(C)(C)c1nc2c(C(N)=O)cccc2[nH]1` as the compound, how does the Ki [1] read?
A: 870 nM

Q: Which Ki [1] does the source give for `NC(=O)c1cccc2[nH]c(C3(N)CCCCC3)nc12` here?
A: 50 nM

Q: With `CN(C1CCC1)C(C)(C)c1nc2c(C(N)=O)cccc2[nH]1` as the compound, how does the Ki [1] read?
A: 19 nM

Q: With `NC(=O)c1cccc2[nH]c(C3(N)CC3)nc12` as the compound, how does the Ki [1] read?
A: 25 nM

Q: With `CCN(CC)C(C)c1nc2c(C(N)=O)cccc2[nH]1` (stereo not drawn) as the compound, how does the Ki [1] read?
A: 61 nM

Q: With `CC(NS(=O)(=O)N(C)C)c1nc2c(C(N)=O)cccc2[nH]1` (stereo not drawn) as the compound, how does the Ki [1] read?
A: 140 nM

Q: With `CC(C)NC(C)c1nc2c(C(N)=O)cccc2[nH]1` (stereo not drawn) as the compound, how does the Ki [1] read?
A: 12 nM

Q: Which Ki [1] does the source give for `CC(N)c1nc2c(C(N)=O)cccc2[nH]1` (stereo not drawn) here?
A: 50 nM

Q: What does the source list for `CN(C)C(C)(C)c1nc2cccc(C(N)=O)c2[nH]1`?
A: Ki [1]: 9 nM; EC50 [2]: 1.8 nM

Q: What does the source list for `CNC(C)(C)c1nc2cccc(C(N)=O)c2[nH]1`?
A: clearance [5]: 70 mL/min/kg; Vd [6]: 3.5 L/kg; Ki [1]: 4 nM; EC50 [2]: 1.3 nM; bioavailability [17]: 85%; AUC [20]: 8.64 µM·h; half-life [23]: 36 min

Q: With `CC(NCC1CC1)c1nc2c(C(N)=O)cccc2[nH]1` (stereo not drawn) as the compound, how does the Ki [1] read?
A: 24 nM

Q: Which Ki [1] does the source give for `CCCNC(C)c1nc2c(C(N)=O)cccc2[nH]1` (stereo not drawn) here?
A: 41 nM

Q: For `CCCNC(C)(C)c1nc2c(C(N)=O)cccc2[nH]1`, which Ki [1] is on record?
A: 10 nM

Q: What about the EC50 [2] of the same compound?
A: 3 nM

Q: Which Ki [1] does the source give for `CC(C)(NCCc1ccccc1)c1nc2c(C(N)=O)cccc2[nH]1` here?
A: 37 nM

Q: And the EC50 [2]?
A: 9 nM

Q: Which clearance [5] does the source give for `CC(C)(c1nc2c(C(N)=O)cccc2[nH]1)N1CCCC1` here?
A: 50 mL/min/kg

Q: What about the Vd [6] of the same compound?
A: 1.8 L/kg

Q: And the Ki [1]?
A: 3 nM

Q: What about the EC50 [2] of the same compound?
A: 0.9 nM

Q: What about the bioavailability [17] of the same compound?
A: 52%

Q: What about the Activity [18] of the same compound?
A: Active

Q: And the AUC [20]?
A: 6.33 µM·h

Q: And the half-life [23]?
A: 24 min

Q: Which Ki [1] does the source give for `CN(CC1CCOC1)C(C)(C)c1nc2cccc(C(N)=O)c2[nH]1` (stereo not drawn) here?
A: 17 nM

Q: For `CC(NC1CCCC1)c1nc2c(C(N)=O)cccc2[nH]1` (stereo not drawn), which Ki [1] is on record?
A: 33 nM

Q: For `NC(=O)c1cccc2[nH]c(C3(N)CCc4ccccc4C3)nc12` (stereo not drawn), which Ki [1] is on record?
A: 18 nM

Q: Which Ki [1] does the source give for `NC(=O)c1cccc2[nH]c(C3(N)Cc4ccccc4C3)nc12` here?
A: 58 nM
